Article PMC7472518, “Ultrasensitive Detection of Enzymatic Activity Using Single Molecule Arrays” (Journal of the American Chemical Society, 2020)
Where a name gives a salt, the structure may show the parent alone.

Tests used:
Abl = biological target: T1, Abl (Homo sapiens, UniProt P00519); experiment: eSimoa ATP titration for Km, Abl; format: biochemical; conditions: calculated from the EC50 of the ATP response curve
T1 construct: purchased Millipore (Burlington, MA) 14-529
From the text: (§1) We first determined the Km values for Src and Abl. Different concentrations of ATP were used in the phosphorylation reaction, while the concentrations of peptide-modified beads and enzymes were kept constant.

Src = biological target: T2, Src (Homo sapiens, UniProt P12931); experiment: eSimoa ATP titration for Km, Src; format: biochemical; conditions: calculated from the EC50 of the ATP response curve
T2 construct: purchased Millipore (Burlington, MA) 14-326
From the text: as §1

Bcr-Abl = conditions: read-out: IC50 (reported); cited from earlier work

T1 sequence (P00519 whole entry): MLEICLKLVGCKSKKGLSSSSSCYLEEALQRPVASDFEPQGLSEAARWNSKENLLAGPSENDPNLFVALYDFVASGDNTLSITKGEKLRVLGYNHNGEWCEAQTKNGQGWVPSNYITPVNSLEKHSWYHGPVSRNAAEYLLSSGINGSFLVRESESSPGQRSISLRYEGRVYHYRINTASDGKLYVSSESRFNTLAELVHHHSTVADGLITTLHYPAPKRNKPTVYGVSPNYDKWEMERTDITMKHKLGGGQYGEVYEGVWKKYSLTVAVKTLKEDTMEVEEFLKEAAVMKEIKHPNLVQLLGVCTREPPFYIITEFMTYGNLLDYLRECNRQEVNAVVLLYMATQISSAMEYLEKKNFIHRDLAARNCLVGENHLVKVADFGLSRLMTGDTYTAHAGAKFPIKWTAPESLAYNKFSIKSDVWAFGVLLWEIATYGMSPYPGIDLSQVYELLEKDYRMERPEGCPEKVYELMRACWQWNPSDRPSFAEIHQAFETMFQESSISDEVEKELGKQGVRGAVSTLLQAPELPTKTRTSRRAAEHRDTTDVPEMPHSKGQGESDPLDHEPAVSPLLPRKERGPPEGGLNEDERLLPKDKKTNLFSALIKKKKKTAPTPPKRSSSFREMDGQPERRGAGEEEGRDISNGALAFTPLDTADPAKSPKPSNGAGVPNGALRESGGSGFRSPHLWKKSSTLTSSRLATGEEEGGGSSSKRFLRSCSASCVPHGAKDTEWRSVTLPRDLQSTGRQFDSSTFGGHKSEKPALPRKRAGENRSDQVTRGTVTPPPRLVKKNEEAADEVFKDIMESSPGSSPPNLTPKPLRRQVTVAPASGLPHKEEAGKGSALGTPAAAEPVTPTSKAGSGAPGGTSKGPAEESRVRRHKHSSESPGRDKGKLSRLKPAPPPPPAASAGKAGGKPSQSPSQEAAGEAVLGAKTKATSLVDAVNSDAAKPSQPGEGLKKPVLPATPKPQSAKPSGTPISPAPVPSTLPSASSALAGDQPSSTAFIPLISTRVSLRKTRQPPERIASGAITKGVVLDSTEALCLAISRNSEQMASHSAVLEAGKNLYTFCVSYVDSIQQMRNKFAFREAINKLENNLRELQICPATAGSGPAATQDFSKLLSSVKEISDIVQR

| SMILES | Km (Abl) [µM] | Km (Src) [µM] | IC50 (Bcr-Abl) [nM] |
| --- | --- | --- | --- |
| Nc1ncnc2c1ncn2[C@@H]1O[C@H](COP(=O)(O)OP(=O)(O)OP(=O)(O)O)[C@@H](O)[C@H]1O [ATP, adenosine 5′-triphosphate (ATP) disodium salt hydrate] | 3.69 | 29.2 |  |
